Source: the supplement of paper PMC13380429

Key:
Settings in all cases: 72 h
[1] = tested on: HepG2; assay: relative viability EC50 (midpoint between 100% and the lowest measured viability); higher = less toxic
[2] = tested on: Caco-2; assay: as above
[3] = tested on: Vero E6; assay: as above
[4] = tested on: U2OS; assay: as above
[5] = tested on: Calu-3; assay: as above
[6] = tested on: HepG2; assay: drug sensitivity score (DSS) for viability; higher = more toxic; extreme values may be limits of the assay
[7] = tested on: Caco-2; assay: as above
[8] = tested on: Vero E6; assay: as above
[9] = tested on: U2OS; assay: as above
[10] = tested on: Calu-3; assay: as above
[11] = tested on: HepG2; assay: cell viability relative to DMSO; higher = less toxic
[12] = tested on: Caco-2; assay: as above
[13] = tested on: Vero E6; assay: as above
[14] = tested on: U2OS; assay: as above
[15] = tested on: Calu-3; assay: as above

Cc1ccc2c(-c3ccccc3)nc(=O)n(C(C)C)c2c1 [proquazone]
relative viability EC50 [1]: > 10 µM | relative viability EC50 [2]: > 10 µM | relative viability EC50 [3]: > 10 µM | relative viability EC50 [4]: > 10 µM | relative viability EC50 [5]: > 10 µM | drug sensitivity score [6]: 0 | drug sensitivity score [7]: 0 | drug sensitivity score [8]: 0 | drug sensitivity score [9]: 0 | drug sensitivity score [10]: 0 | cell viability ([11]; 1 nM): 96.7% | cell viability ([11]; 10 nM): 109% | cell viability ([11]; 100 nM): 102% | cell viability ([11]; 1000 nM): 102% | cell viability ([11]; 10000 nM): 110% | cell viability ([12]; 1 nM): 86.9% | cell viability ([12]; 10 nM): 89.3% | cell viability ([12]; 100 nM): 81.4% | cell viability ([12]; 1000 nM): 103% | cell viability ([12]; 10000 nM): 99.8% | cell viability ([13]; 1 nM): 93.4% | cell viability ([13]; 10 nM): 92.4% | cell viability ([13]; 100 nM): 89.3% | cell viability ([13]; 1000 nM): 105% | cell viability ([13]; 10000 nM): 103% | cell viability ([14]; 1 nM): 99.7% | cell viability ([14]; 10 nM): 94.5% | cell viability ([14]; 100 nM): 96.2% | cell viability ([14]; 1000 nM): 92.4% | cell viability ([14]; 10000 nM): 105% | cell viability ([15]; 1 nM): 92.9% | cell viability ([15]; 10 nM): 94.9% | cell viability ([15]; 100 nM): 104% | cell viability ([15]; 1000 nM): 105% | cell viability ([15]; 10000 nM): 117%

C[C@H](CCC(=O)NCCS(=O)(=O)O)[C@H]1CC[C@H]2[C@@H]3[C@H](O)C[C@@H]4C[C@H](O)CC[C@]4(C)[C@H]3C[C@H](O)[C@]12C [taurocholate]
relative viability EC50 [1]: > 10 µM | relative viability EC50 [2]: > 10 µM | relative viability EC50 [3]: > 10 µM | relative viability EC50 [4]: > 10 µM | relative viability EC50 [5]: > 10 µM | drug sensitivity score [6]: 0 | drug sensitivity score [7]: 0 | drug sensitivity score [8]: 0 | drug sensitivity score [9]: 0 | drug sensitivity score [10]: 0 | cell viability ([11]; 1 nM): 105% | cell viability ([11]; 10 nM): 74% | cell viability ([11]; 100 nM): 99.8% | cell viability ([11]; 1000 nM): 108% | cell viability ([11]; 10000 nM): 98.4% | cell viability ([12]; 1 nM): 110% | cell viability ([12]; 10 nM): 86.9% | cell viability ([12]; 100 nM): 104% | cell viability ([12]; 1000 nM): 87.2% | cell viability ([12]; 10000 nM): 92.2% | cell viability ([13]; 1 nM): 104% | cell viability ([13]; 10 nM): 106% | cell viability ([13]; 100 nM): 107% | cell viability ([13]; 1000 nM): 110% | cell viability ([13]; 10000 nM): 95% | cell viability ([14]; 1 nM): 100% | cell viability ([14]; 10 nM): 98.9% | cell viability ([14]; 100 nM): 101% | cell viability ([14]; 1000 nM): 98.9% | cell viability ([14]; 10000 nM): 99.2% | cell viability ([15]; 1 nM): 103% | cell viability ([15]; 10 nM): 99% | cell viability ([15]; 100 nM): 109% | cell viability ([15]; 1000 nM): 102% | cell viability ([15]; 10000 nM): 96.3%

C[S+](C)CC[C@H](N)C(=O)O [cabagin]
relative viability EC50 [1]: > 10 µM | relative viability EC50 [2]: > 10 µM | relative viability EC50 [3]: > 10 µM | relative viability EC50 [4]: > 10 µM | relative viability EC50 [5]: > 10 µM | drug sensitivity score [6]: 0 | drug sensitivity score [7]: 0 | drug sensitivity score [8]: 0 | drug sensitivity score [9]: 0 | drug sensitivity score [10]: 0 | cell viability ([11]; 1 nM): 95.6% | cell viability ([11]; 10 nM): 99.5% | cell viability ([11]; 100 nM): 103% | cell viability ([11]; 1000 nM): 102% | cell viability ([11]; 10000 nM): 98.5% | cell viability ([12]; 1 nM): 90.6% | cell viability ([12]; 10 nM): 97.6% | cell viability ([12]; 100 nM): 109% | cell viability ([12]; 1000 nM): 97.3% | cell viability ([12]; 10000 nM): 99.6% | cell viability ([13]; 1 nM): 92.1% | cell viability ([13]; 10 nM): 99.5% | cell viability ([13]; 100 nM): 85.3% | cell viability ([13]; 1000 nM): 101% | cell viability ([13]; 10000 nM): 108% | cell viability ([14]; 1 nM): 97.9% | cell viability ([14]; 10 nM): 92.3% | cell viability ([14]; 100 nM): 101% | cell viability ([14]; 1000 nM): 94.7% | cell viability ([14]; 10000 nM): 100% | cell viability ([15]; 1 nM): 103% | cell viability ([15]; 10 nM): 84.8% | cell viability ([15]; 100 nM): 85.1% | cell viability ([15]; 1000 nM): 86.3% | cell viability ([15]; 10000 nM): 103%

Cc1cc(OCc2nc(-c3ccccc3Cl)cs2)ccc1OCC(=O)O [GPR120-modulator-1]
relative viability EC50 [1]: > 10 µM | relative viability EC50 [2]: > 10 µM | relative viability EC50 [3]: > 10 µM | relative viability EC50 [4]: > 10 µM | relative viability EC50 [5]: > 10 µM | drug sensitivity score [6]: 0 | drug sensitivity score [7]: 0 | drug sensitivity score [8]: 0 | drug sensitivity score [9]: 0 | drug sensitivity score [10]: 0 | cell viability ([11]; 1 nM): 104% | cell viability ([11]; 10 nM): 93.4% | cell viability ([11]; 100 nM): 101% | cell viability ([11]; 1000 nM): 101% | cell viability ([11]; 10000 nM): 92.8% | cell viability ([12]; 1 nM): 102% | cell viability ([12]; 10 nM): 97.5% | cell viability ([12]; 100 nM): 103% | cell viability ([12]; 1000 nM): 98.5% | cell viability ([12]; 10000 nM): 92.8% | cell viability ([13]; 1 nM): 101% | cell viability ([13]; 10 nM): 102% | cell viability ([13]; 100 nM): 102% | cell viability ([13]; 1000 nM): 97.9% | cell viability ([13]; 10000 nM): 97.1% | cell viability ([14]; 1 nM): 92.3% | cell viability ([14]; 10 nM): 96.8% | cell viability ([14]; 100 nM): 92.2% | cell viability ([14]; 1000 nM): 102% | cell viability ([14]; 10000 nM): 94.3% | cell viability ([15]; 1 nM): 96.4% | cell viability ([15]; 10 nM): 99.8% | cell viability ([15]; 100 nM): 99.6% | cell viability ([15]; 1000 nM): 110% | cell viability ([15]; 10000 nM): 86.9%

CC(C)NCCN(C(C)C)S(=O)(=O)c1ccc(Cl)cc1Cl [RN-1734]
relative viability EC50 [1]: > 10 µM | relative viability EC50 [2]: > 10 µM | relative viability EC50 [3]: > 10 µM | relative viability EC50 [4]: > 10 µM | relative viability EC50 [5]: > 10 µM | drug sensitivity score [6]: 0.4 | drug sensitivity score [7]: 0 | drug sensitivity score [8]: 0 | drug sensitivity score [9]: 0 | drug sensitivity score [10]: 0 | cell viability ([11]; 1 nM): 99.8% | cell viability ([11]; 10 nM): 89.7% | cell viability ([11]; 100 nM): 102% | cell viability ([11]; 1000 nM): 96.8% | cell viability ([11]; 10000 nM): 85.9% | cell viability ([12]; 1 nM): 105% | cell viability ([12]; 10 nM): 95.1% | cell viability ([12]; 100 nM): 97.1% | cell viability ([12]; 1000 nM): 94.6% | cell viability ([12]; 10000 nM): 97.4% | cell viability ([13]; 1 nM): 97% | cell viability ([13]; 10 nM): 100% | cell viability ([13]; 100 nM): 94.2% | cell viability ([13]; 1000 nM): 96.7% | cell viability ([13]; 10000 nM): 91.2% | cell viability ([14]; 1 nM): 99.3% | cell viability ([14]; 10 nM): 98.4% | cell viability ([14]; 100 nM): 101% | cell viability ([14]; 1000 nM): 95.4% | cell viability ([14]; 10000 nM): 94.7% | cell viability ([15]; 1 nM): 97.1% | cell viability ([15]; 10 nM): 101% | cell viability ([15]; 100 nM): 95.6% | cell viability ([15]; 1000 nM): 99.8% | cell viability ([15]; 10000 nM): 99.6%

CCCCOC(=O)c1cc2c(cn1)[nH]c1ccccc12 [beta-CCB]
relative viability EC50 [1]: > 10 µM | relative viability EC50 [2]: > 10 µM | relative viability EC50 [3]: > 10 µM | relative viability EC50 [4]: > 10 µM | relative viability EC50 [5]: > 10 µM | drug sensitivity score [6]: 0 | drug sensitivity score [7]: 0.1 | drug sensitivity score [8]: 0 | drug sensitivity score [9]: 0 | drug sensitivity score [10]: 0 | cell viability ([11]; 1 nM): 117% | cell viability ([11]; 10 nM): 118% | cell viability ([11]; 100 nM): 105% | cell viability ([11]; 1000 nM): 98.4% | cell viability ([11]; 10000 nM): 96% | cell viability ([12]; 1 nM): 95.1% | cell viability ([12]; 10 nM): 95.5% | cell viability ([12]; 100 nM): 106% | cell viability ([12]; 1000 nM): 94.9% | cell viability ([12]; 10000 nM): 88.9% | cell viability ([13]; 1 nM): 99.5% | cell viability ([13]; 10 nM): 97.3% | cell viability ([13]; 100 nM): 101% | cell viability ([13]; 1000 nM): 98.7% | cell viability ([13]; 10000 nM): 102% | cell viability ([14]; 1 nM): 102% | cell viability ([14]; 10 nM): 111% | cell viability ([14]; 100 nM): 99.3% | cell viability ([14]; 1000 nM): 105% | cell viability ([14]; 10000 nM): 96% | cell viability ([15]; 1 nM): 92.2% | cell viability ([15]; 10 nM): 93% | cell viability ([15]; 100 nM): 107% | cell viability ([15]; 1000 nM): 106% | cell viability ([15]; 10000 nM): 91.5%

CC[C@H](/C=C/[C@@H](C)[C@H]1CC[C@H]2[C@@H]3CC=C4C[C@@H](O)CC[C@]4(C)[C@H]3CC[C@]12C)C(C)C [Stigmasterol (Stigmasterin)]
relative viability EC50 [1]: > 10 µM | relative viability EC50 [2]: > 10 µM | relative viability EC50 [3]: > 10 µM | relative viability EC50 [4]: > 10 µM | relative viability EC50 [5]: > 10 µM | drug sensitivity score [6]: 0 | drug sensitivity score [7]: 0 | drug sensitivity score [8]: 0 | drug sensitivity score [9]: 0 | drug sensitivity score [10]: 0 | cell viability ([11]; 1 nM): 103% | cell viability ([11]; 10 nM): 109% | cell viability ([11]; 100 nM): 92.9% | cell viability ([11]; 1000 nM): 92.8% | cell viability ([11]; 10000 nM): 105% | cell viability ([12]; 1 nM): 102% | cell viability ([12]; 10 nM): 107% | cell viability ([12]; 100 nM): 94.6% | cell viability ([12]; 1000 nM): 93.5% | cell viability ([12]; 10000 nM): 96.9% | cell viability ([13]; 1 nM): 99% | cell viability ([13]; 10 nM): 104% | cell viability ([13]; 100 nM): 99.4% | cell viability ([13]; 1000 nM): 106% | cell viability ([13]; 10000 nM): 102% | cell viability ([14]; 1 nM): 105% | cell viability ([14]; 10 nM): 96.4% | cell viability ([14]; 100 nM): 100% | cell viability ([14]; 1000 nM): 99.3% | cell viability ([14]; 10000 nM): 99.4% | cell viability ([15]; 1 nM): 95% | cell viability ([15]; 10 nM): 103% | cell viability ([15]; 100 nM): 110% | cell viability ([15]; 1000 nM): 102% | cell viability ([15]; 10000 nM): 104%
